Where “and” joins values, the source holds several entries; their conditions need not be identical. Equal entries are not always repeated. Where two headings read alike, the source gives them in different places.
Columns and labels:
human sEH = human sEH (Homo sapiens (Human), UniProt P34913); assay: Inhibition of human soluble epoxide hydrolase (IC50; one of three substrate methods); type: biochemical;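 note: enzyme expressed in baculovirus and affinity-purified, assays run in triplicate, with substrate and read-out differing among the three methods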
[1] = Solubility in oil of the dosing preparation (compound in Crisco); type: physicochemical; conditions: appearance in oil, in parentheses after compound number
From the text: The dogs are fed immediately thereafter.

[2] = Pharmacokinetic screening in dogs, oral administration, plasma LC-MS/MS; conditions: for LC/MS analysis, plasma level at time 0 / LC/MS analysis, plasma level at time 15 / LC/MS analysis, plasma level at time 30 / LC/MS analysis, plasma level at time 60 / LC/MS analysis, plasma level at time 120 / LC/MS analysis, plasma level at time 180 / LC/MS analysis, plasma level at time 240 / LC/MS analysis, plasma level at time 300 / LC/MS analysis, plasma level at time 360 / LC/MS analysis, plasma level at time 480 / LC/MS analysis, plasma level at time 1440: single oral dose (0.3 mg/kg per FIG. 1); for LC/MS analysis, plasma level at time 0: time 0 min; for LC/MS analysis, plasma level at time 15: time 15 min; for LC/MS analysis, plasma level at time 30: time 30 min; for LC/MS analysis, plasma level at time 60: time 60 min; for LC/MS analysis, plasma level at time 120: time 120 min; for LC/MS analysis, plasma level at time 180: time 180 min; for LC/MS analysis, plasma level at time 240: time 240 min; for LC/MS analysis, plasma level at time 300: time 300 min; for LC/MS analysis, plasma level at time 360: time 360 min; for LC/MS analysis, plasma level at time 480: time 480 min; for LC/MS analysis, plasma level at time 1440: time 1440 min

Chain of human sEH (P34913 whole entry): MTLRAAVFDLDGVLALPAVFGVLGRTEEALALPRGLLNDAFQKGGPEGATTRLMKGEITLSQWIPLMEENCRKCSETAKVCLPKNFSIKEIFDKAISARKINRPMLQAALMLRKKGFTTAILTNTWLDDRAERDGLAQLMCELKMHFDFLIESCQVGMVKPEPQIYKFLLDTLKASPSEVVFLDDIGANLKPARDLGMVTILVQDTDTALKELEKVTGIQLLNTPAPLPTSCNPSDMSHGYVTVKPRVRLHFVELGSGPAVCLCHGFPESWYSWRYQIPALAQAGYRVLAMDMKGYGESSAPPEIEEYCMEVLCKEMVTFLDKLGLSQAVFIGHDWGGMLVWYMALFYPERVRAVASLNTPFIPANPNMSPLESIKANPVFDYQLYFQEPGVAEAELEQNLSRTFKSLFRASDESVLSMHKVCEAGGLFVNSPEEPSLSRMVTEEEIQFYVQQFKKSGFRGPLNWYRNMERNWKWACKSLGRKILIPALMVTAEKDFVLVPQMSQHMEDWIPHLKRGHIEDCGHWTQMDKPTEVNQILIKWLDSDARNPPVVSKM

| SMILES | IC50 (human sEH; recombinant human sEH) [nM] | solubility in oil [1] | LC/MS analysis, plasma level at time 0 ([2]; dogs) | LC/MS analysis, plasma level at time 15 ([2]; dogs) | LC/MS analysis, plasma level at time 30 ([2]; dogs) | LC/MS analysis, plasma level at time 60 ([2]; dogs) | LC/MS analysis, plasma level at time 120 ([2]; dogs) | LC/MS analysis, plasma level at time 180 ([2]; dogs) | LC/MS analysis, plasma level at time 240 ([2]; dogs) | LC/MS analysis, plasma level at time 300 ([2]; dogs) | LC/MS analysis, plasma level at time 360 ([2]; dogs) | LC/MS analysis, plasma level at time 480 ([2]; dogs) | LC/MS analysis, plasma level at time 1440 ([2]; dogs) | IC50 (human sEH) | AUC ([2]; dog, plasma, po, 0.3 mg/kg) [µM·h] | AUCINF_D_pred ([2]; dogs, oral, dose-normalised) [kg·nM·min/mg] |
| --- | --- | --- | --- | --- | --- | --- | --- | --- | --- | --- | --- | --- | --- | --- | --- | --- |
| O=C(NCC1CCN(C(=O)c2ccccc2)CC1)NC12CC3CC(CC(C3)C1)C2 [Compound 1121, N-((1-benzoylpiperidin-4-yl)methyl)-N′-(adamant-1-yl)urea] | 3.2 | 1121 (Not dissolved) | 0.00 | 4.86 | 3.81 | 1.98 | 0.42 | 0.16 | 0.06 | 0.05 | 0.03 | 0.03 | 0.04 |  |  |  |
| CCCC(=O)N1CCC(NC(=O)NC23CC4CC(CC(C4)C2)C3)CC1 [Compound 1157, N-(1-butyrylpiperidin-4-yl)-N′-(adamant-1-yl)urea] |  | 1157 (Opaque) | 0.00 | 0.58 | 5.18 | 7.77 | 9.50 | 7.05 | 4.60 | 2.45 | 2.45 | 0.86 | 0.00 | 2.6 nM and 2.64 nM | 0.0367 | 7187 |
| O=C(NC1CCN(C(=O)c2ccccc2)CC1)NC12CC3CC(CC(C3)C1)C2 [Compound 1159, N-(1-benzoylpiperidin-4-yl)-N′-(adamant-1-yl)urea] | 1.3 | 1159 (Opaque) | 0.00 | 7.26 | 7.82 | 4.58 | 1.39 | 0.60 | 0.00 | 0.00 | 0.00 | 0.00 | 0.00 |  |  |  |

Now from value to molecule, other results behind:

| IC50 (human sEH; recombinant human sEH) [nM] | solubility in oil [1] | LC/MS analysis, plasma level at time 0 ([2]; dogs) | LC/MS analysis, plasma level at time 15 ([2]; dogs) | LC/MS analysis, plasma level at time 30 ([2]; dogs) | LC/MS analysis, plasma level at time 60 ([2]; dogs) | LC/MS analysis, plasma level at time 120 ([2]; dogs) | LC/MS analysis, plasma level at time 180 ([2]; dogs) | LC/MS analysis, plasma level at time 240 ([2]; dogs) | LC/MS analysis, plasma level at time 300 ([2]; dogs) | LC/MS analysis, plasma level at time 360 ([2]; dogs) | LC/MS analysis, plasma level at time 480 ([2]; dogs) | LC/MS analysis, plasma level at time 1440 ([2]; dogs) | SMILES | IC50 (human sEH) | AUC ([2]; dog, plasma, po, 0.3 mg/kg) [µM·h] | AUCINF_D_pred ([2]; dogs, oral, dose-normalised) [kg·nM·min/mg] |
| --- | --- | --- | --- | --- | --- | --- | --- | --- | --- | --- | --- | --- | --- | --- | --- | --- |
| 1.1 | 1204 (Opaque) | 0.00 | 0.00 | 0.19 | 0.34 | 0.11 | 0.00 | 0.00 | 0.00 | 0.00 | 0.00 | 0.00 | COC(=O)c1ccc(C(=O)N2CCC(NC(=O)NC34CC5CC(CC(C5)C3)C4)CC2)cc1 [Compound 1204, 4-[4-(3-Adamantan-1-yl-ureido)-piperidine-1-carbonyl]-benzoic acid methyl ester] |  |  |  |
| 2.7 | 1206 (Opaque) | 0.00 | 0.00 | 0.00 | 0.00 | 0.00 | 0.00 | 0.00 | 0.00 | 0.00 | 0.00 | 0.00 | COC(=O)CCCC(=O)N1CCC(NC(=O)NC23CC4CC(CC(C4)C2)C3)CC1 [Compound 1206, 5-[4-(3-Adamantan-1-yl-ureido)-piperidin-1-yl]-5-oxo-pentanoic acid methyl ester] |  |  |  |
